Assay results taken from patent US4853401A, “Spiro-hydantoins as aldose reductase inhibitors” (priority 1987, dated 1989).

Tests used:
[1] = Acute oral toxicity (LD50); type: in vivo; details: mouse, in vivo, mice, read-out: Lethal dose LD50
Procedure: (§1) The LD 50 was calculated by the method of Litchfield and Wilcoxon (J. Pharmacol. Exp. Ther., 96, 99, 1949) and is expressed in mg/kg. The products were orally administered to mice.
(§2) Behaviour was studied, 2, 4, 6 and 24 hours after treatment. Observation was continued if symptoms persisted at that time. Deaths were recorded during the 14 days after treatment. The results are given in Table II, in which the numbers of the compounds are the same as the numbers given in column 1 of Table I.

mice [2] = assay: Effect on behaviour (Irwin method), side effects; type: in vivo
Procedure: The effect on behaviour was studied by a method derived from that of S. Irwin (Gordon Res. Conf. on Medicinal Chem., 133, 1959). The substances, suspended in 1% tragacanth mucilage, were orally administered via an intra-gastric probe to groups of 5 male mice fasted for 18 hours. The maximum tested dose was 3 000 mg/kg or 1 000 mg/kg, and smaller doses were tested if an effect has been observed.
as §2

aldose reductase = target: T1, aldose reductase (Rattus norvegicus, UniProt P07943); assay: Inhibition of enzymatic activity of aldose reductase in vitro; type: biochemical; details: 10^-4 M, rat crystalline lens enzyme, pH 6.2, D,L-glyceraldehyde substrate; read-out: Inhibition of enzymatic activity of AR in vitro
T1 construct: The supernatant liquid formed the enzyme solution used for the test; from tissue; host or cells: rat crystalline lens, water homogenate, supernatant
Text: 1.1 Inhibiting effect on enzymatic activity of aldose reductase:
The method described by S. Hayman and J. H. Kinoshita (J. Biol. Chem., 240, 877 (1965)) was used for in vitro testing of the aforementioned effect of the products according to the invention.
Rat's crystalline lens was homogenized in water and centrifuged to eliminate insoluble substances. The supernatant liquid formed the enzyme solution used for the test.
(§3) The effect of products according to the invention in inhibiting enzymatic activity of aldose reductase was determined by spectrophotometrically following for 5 minutes the disappearance of NADPH in an aqueous solution containing 0.067M phosphate buffer (final pH: 6.2), 0.40M lithium sulphate, 5.10^-5 M NADPH, 10^-4 M of the product under test and 100 μl of the enzyme solution, to which 10^-2 M of D,L-glyceraldehyde had been added as substrate. (NADPH=reduced form of nicotinamide adenine dinucleotide phosphate).
The inhibiting effect observed in the presence of 10^-4 M of product under test relative to the reaction in the absence of a compound according to the invention, is expressed as a percentage.

[3] = system: accumulation of galactitol in fibroblasts obtained from human skin; assay: Inhibition of accumulation of galactitol in fibroblasts; type: cell-based; details: Fibroblast, 48 h, 37° C., galactose 3 mg/ml
Procedure: 1.2 Inhibiting effect on accumulation of galactitol:
A test for evaluating this activity was made in vitro on fibroblasts obtained from human skin.
An experimental model culture was obtained by incubating the cells in the presence of a medium containing a high concentration of galactose (3 mg/ml) and the product under test, and measuring the accumulation of galactitol in the cells after a 48-hour incubation period at 37° C. The cells were then isolated, washed in physiological salt solution and treated with a water-ethanol solution. The medium was centrifuged and the supernatant liquid was lyophylized.
The galactitol in the resulting sample was determined by HPLC (=high pressure liquid chromatography) after derivatives had been obtained with phenyl isocyanate.
The proportion of proteins in the precipitate obtained during the previously-mentioned centrifuging was measured by the method of M. M. Bradford (Anal. Biochem., 72, 248-254 (1976)) and indicated the number of cells present in the sample.
The inhibiting effect of the tested product was expressed as a percentage inhibition of intracellular accumulation of galactitol compared with the controls.

[4] = system: accumulation of sorbitol in the crystalline lenses; assay: Inhibition of accumulation of sorbitol in crystalline lenses of diabetic rats; type: in vivo, Sprague Dawley rats; details: for Inhibition of accumulation of sorbitol in vivo, crystalline lenses: oral 25 mg/kg at 0, 7 and 24 h, sacrificed 27 h
Procedure: (§4) 2.1 Inhibition of accumulation of sorbitol in crystalline lenses and nerves of diabetic rats:
(§5) The effects of the products according to the invention on the proportion of plasma glucose and the accumulation of sorbitol in the crystalline lenses and sciatic nerves of rats made diabetic by streptozotocin were examined by the method of M. J. Peterson, et al (Metabolism, 28, 456-461 (1979)).
(§6) Fasted Sprague Dawley rats were made diabetic by intraperitoneal injection of streptozotocin (75 mg/kg). The product under test was orally administered at a dose of 25 mg/kg after 0, 7 and 24 hours. The rats were sacrificed 27 hours after induction of diabetes. The crystalline lenses and sciatic nerves were taken and preserved at -20° C. until analysed. The crystalline lenses and sciatic nerves were homogenized in water and the proteins were precipitated from ethanol. The precipitate was eliminated by centrifuging and the supernatant liquid was lyophylised. The sorbitol in the sample was determined by the method of B. Bjorkqvist (J. of Chromatograph, 218, 65-71 (1981)), adapted by A. Lenaers et al. (Arch. Intern. Physiol. Bioch., 91, B, 62-63 (1983)).
(§7) The sample was dissolved in pyridine containing galactitol as an internal standard. Derivatives were formed therefrom by phenylisocyanate during incubation for 1 hour at 60° C. The reaction was then stopped by adding methanol and the derivatives were separated and determined by HPLC.
(§8) The results are expressed as percentage inhibition of the accumulation of sorbitol, compared with the controls.

[5] = system: accumulation of sorbitol in the sciatic nerves; assay: Inhibition of accumulation of sorbitol in sciatic nerves of diabetic rats; type: in vivo, Sprague Dawley rats; details: oral 25 mg/kg at 0, 7 and 24 h, sacrificed 27 h
Procedure: as §4, §5, §6, §7, §8

[6] = system: sorbitol accumulation in crystalline lenses; assay: Effect of in vivo doses on sorbitol accumulation in crystalline lenses of diabetic rats; set-up: species or system Sprague Dawley rats; details: for ED50: Rattus norvegicus, 27 h, diabetic rats, oral, read-out: ED50 (dose at which measured inhibition of aldose reductase activity is 50%); for ED50 / therapeutic index MED/ED50, crystalline lenses: crystalline lenses
Text: (§9) 2.2 Effect of "in vivo" doses on sorbitol accumulation in sciatic nerves and crystalline lenses of diabetic rats:
(§10) Estimates were made of the effects of the products on the proportion of plasma glucose and the sorbitol content of the crystalline lenses and sciatic nerves of rats.

[7] = system: sorbitol accumulation in sciatic nerves; assay: Effect of in vivo doses on sorbitol accumulation in sciatic nerves of diabetic rats; set-up: species or system Sprague Dawley rats; details: for ED50: Rattus norvegicus, 27 h, diabetic rats, oral, read-out: ED50 (dose at which measured inhibition of aldose reductase activity is 50%); for ED50 / therapeutic index MED/ED50, sciatic nerves: sciatic nerves
Text: as §9, §10

[8] = Effect of in vivo doses on plasma glucose of diabetic rats; set-up: species or system Sprague Dawley rats; details: n = 5, average ± standard deviation
Procedure: Compound No. 1 (CP 3182 AR) and No. 2 (CP 3192 AR) were evaluated at various doses, using the experimental model described hereinbefore (.sctn.2.1).
In the case of each product, 25 Sprague Dawley rats fasted the previous day were made diabetic by an intraperitoneal injection of streptozotocin (75 mg/kg). The rats were divided into 5 groups of 5, each orally given 0.3, […] or 10 mg/kg of CP 3182 AR or a control.
An identical experiment was performed with CP 3192 AR at the same doses. Treatment was given immediately after the streptozotocin, and 7 and 24 hours later. The animals were sacrificed 27 hours after induction. Estimates were made of the effects of the products on the proportion of plasma glucose and the sorbitol content of the crystalline lenses and sciatic nerves of rats.

[9] = Solubility in the aldose reductase test medium; type: physicochemical; details: 10^-4 M, aqueous phosphate buffer pH 6.2
Procedure: as §3

mice [10] = assay: Acute oral toxicity (LD50); type: in vivo; details: 3 000 mg/kg
Procedure: as §1, §2

O=C1N(CO)C(=O)C2(c3ccccc3-c3ccccc32)N1CO [Compound 1, bis-(1',3'-hydroxymethyl)-spiro-/fluorene-9,4'-imidazolidine/-2',5'-dione]
LD50 at 336 h [1]: > 3000 mg/kg | side effect observed (mice [2]; dose of 3000 mg/kg): no side effect was observed | MED (minimum dose at which a side effect is observed) (mice [2]; mice, oral): > 3 000 mg/kg | inhibition at 100 µM (aldose reductase): 34% | inhibition at 100 µM ([3]; 10^-4 M): 85% | inhibition at 10 µM ([3]; 10^-5 M): 58% | inhibition at 1 µM ([3]; 10^-6 M): 21% | Inhibition of accumulation of sorbitol in vivo, crystalline lenses [4]: 81% | inhibition of accumulation of sorbitol in crystalline lenses and sciatic nerves (in words) ([4]; oral 25 mg/kg, lenses and sciatic nerves): particularly active | Inhibition of accumulation of sorbitol in vivo, in sciatic nerves [5]: 85% | % inhibition of sorbitol accumulation, Crystalline lenses ([6]; 0.3 mg/kg oral at 0, 7, 24 h): 0 ± 21% | % inhibition of sorbitol accumulation, Crystalline lenses ([6]; 1 mg/kg oral at 0, 7, 24 h): 1 ± 3% | % inhibition of sorbitol accumulation, Crystalline lenses ([6]; 3 mg/kg oral at 0, 7, 24 h): 41% | % inhibition of sorbitol accumulation, Crystalline lenses ([6]; 10 mg/kg oral at 0, 7, 24 h): 71% | ED50 [6]: 3 mg/kg | therapeutic index MED/ED50, crystalline lenses [6]: about 1 000 | % inhibition of sorbitol accumulation, Sciatic nerves ([7]; 0.3 mg/kg oral at 0, 7, 24 h): 29 ± 14% | % inhibition of sorbitol accumulation, Sciatic nerves ([7]; 1 mg/kg oral at 0, 7, 24 h): 41 ± 10% | % inhibition of sorbitol accumulation, Sciatic nerves ([7]; 3 mg/kg oral at 0, 7, 24 h): 69 ± 8% | % inhibition of sorbitol accumulation, Sciatic nerves ([7]; 10 mg/kg oral at 0, 7, 24 h): 82 ± 6% | ED50 [7]: 1 mg/kg | therapeutic index MED/ED50, sciatic nerves [7]: above 3 000 | Plasma glucose ([8]; 0.3 mg/kg oral): 462 ± 60 mg/100 ml | Plasma glucose ([8]; 1 mg/kg oral): 538 ± 34 mg/100 ml | Plasma glucose ([8]; 3 mg/kg oral): 464 ± 62 mg/100 ml | Plasma glucose ([8]; 10 mg/kg oral): 424 ± 37 mg/100 ml

O=C(Cc1ccccc1)OCN1C(=O)N(COC(=O)Cc2ccccc2)C2(C1=O)c1ccccc1-c1ccccc12 [Compound 23]
Inhibition of accumulation of sorbitol in vivo, crystalline lenses [4]: 5% | Inhibition of accumulation of sorbitol in vivo, in sciatic nerves [5]: 7% | insolubility in the tested medium [9]: insol

O=C1NC(=O)[C@@]2(CCOc3ccc(F)cc32)N1 [sorbinil, d-6-fluoro-spiro-/chromane-4,4'-imidazolidine/-2',5'-dione, reference compound]
LD50 at 336 h [1]: 1450 mg/kg | mortality (mice [10]): all the mice died on the second day | MED (minimum dose at which a side effect is observed) (mice [2]; mouse, in vivo, po): 300 mg/kg | duration of side effects (mice [2]; mouse, in vivo, po, 300 mg/kg): more than 24 hours | side-effects (mice [2]; mouse, in vivo, po, 300 mg/kg): depression with loss of righting reflex and muscular hypotonia | Inhibition of accumulation of sorbitol in vivo, crystalline lenses [4]: 93% | Inhibition of accumulation of sorbitol in vivo, in sciatic nerves [5]: 85% | ED50 [6]: 1 mg/kg | therapeutic index MED/ED50, crystalline lenses [6]: 300 | ED50 [7]: 1 mg/kg | therapeutic index MED/ED50, sciatic nerves [7]: 300
